Test results taken from patent US6706664B1, “Benzoxazole compounds, process for the preparation thereof and herbicides” (UBE Industries, Ltd., priority 1999, dated 2004).

Key:
Set-up in all cases: key: 0: normal development; 1: Less damaged; 2: Slightly damaged; 3: Moderately damaged; 4: Severely damaged; 5: All killed
livid amaranth = experiment: Soil treatment test for upland field; format: in vivo, Amaranthus lividus; conditions: 500 g/ha, glass house 25° C., 3 weeks
Outline: (§1)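 Herbicidal effect graded on a 0–5 scale (0 normal development, 5 all killed) after 3 weeks in a glasshouse at about 25° C. Compound applied as a soil-surface spray at 500 g/ha right after sowing into Ube alluvial soil; spray water contained 0.05% surfactant.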

green foxtail = experiment: Soil treatment test for upland field; format: in vivo, Setaria viridis; conditions: 500 g/ha, glass house 25° C., 3 weeks
Outline: as §1

annual bluegrass = experiment: Soil treatment test for upland field; format: in vivo, Poa annua; conditions: 500 g/ha, glass house 25° C., 3 weeks
Outline: as §1

Large crabgrass = experiment: Soil treatment test for upland field; format: in vivo, Digitaria adscendens; conditions: 500 g/ha, glass house 25° C., 3 weeks
Outline: as §1

young rice plant = experiment: Herbicidal test for paddy field; format: in vivo; conditions: paddy field pot, 500 g/ha dropwise at 1.5 leaf stage of barnyardgrass, 3 weeks, rank vs non-treated
Outline: (§2)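 Under flooded conditions (3 cm water over Ube soil), each compound was delivered by pipet as a diluted wettable powder (0.05% surfactant) at 500 g/ha, timed to 1.5-leaf barnyardgrass. Plants stayed 3 weeks in a 25° C glasshouse before injury was graded from 0 (normal) to 5 (all killed).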

flat sedge = experiment: Herbicidal test for paddy field; format: in vivo, Cyperus serotinus; conditions: paddy field pot, 500 g/ha dropwise at 1.5 leaf stage of barnyardgrass, 3 weeks, rank vs non-treated
Procedure: Wagner pots, each having an area of 1/5000 are, were packed with Ube soil (alluvial soil) and planted with seeds or tubers of young rice plant, barnyardgrass, bulrush, flat sedge and monochoria. Then, the pots were filled with water to a depth of 3 cm.
Each wettable powder of the desired compounds (I) shown in Table 1 prepared in accordance with Example 2 was diluted with water containing a surfactant (0.05%) and subjected to dropwise addition treatment by using pipet so that an effective concentration of the compound (I) in each herbicide became 500 g/ha at 1.5 leaf stage of barnyardgrass.
These plants were controlled in a glass house at an average temperature of 25° C. for 3 weeks, and then herbicidal effects thereof were investigated.
The herbicidal effects are evaluated according to the following 6 ranks as compared with non-treated district.
(0: normal development, 1: Less damaged, 2: Slightly damaged, 3: Moderately damaged, 4: Severely damaged, 5: All killed).

blackgrass = experiment: Soil treatment test for upland field; format: in vivo, Alopecurus aegualis; conditions: 500 g/ha, glass house 25° C., 3 weeks
Outline: as §1

common lambsquartes = experiment: Soil treatment test for upland field; format: in vivo, Chenopodium album; conditions: 500 g/ha, glass house 25° C., 3 weeks
Outline: as §1

barnyardgrass [1] = experiment: Soil treatment test for upland field; format: in vivo, Echinochloa crusgalli; conditions: 500 g/ha, glass house 25° C., 3 weeks
Outline: as §1

barnyardgrass [2] = experiment: Herbicidal test for paddy field; format: in vivo, Echinochloa crusgalli; conditions: paddy field pot, 500 g/ha dropwise at 1.5 leaf stage of barnyardgrass, 3 weeks, rank vs non-treated
Outline: as §2

solgum = experiment: Soil treatment test for upland field; format: in vivo; conditions: 500 g/ha, glass house 25° C., 3 weeks
Outline: as §1

cotton = experiment: Soil treatment test for upland field; format: in vivo; conditions: 500 g/ha, glass house 25° C., 3 weeks
Outline: as §1

soybean = experiment: Soil treatment test for upland field; format: in vivo; conditions: 500 g/ha, glass house 25° C., 3 weeks
Outline: as §1

wheat = experiment: Soil treatment test for upland field; format: in vivo; conditions: 500 g/ha, glass house 25° C., 3 weeks
Outline: as §1

corn = experiment: Soil treatment test for upland field; format: in vivo; conditions: 500 g/ha, glass house 25° C., 3 weeks
Outline: as §1

bulrush = experiment: Herbicidal test for paddy field; format: in vivo, Scrips juncoides; conditions: paddy field pot, 500 g/ha dropwise at 1.5 leaf stage of barnyardgrass, 3 weeks, rank vs non-treated
Outline: as §2

monochoria = experiment: Herbicidal test for paddy field; format: in vivo, Monochoria vaginalis; conditions: paddy field pot, 500 g/ha dropwise at 1.5 leaf stage of barnyardgrass, 3 weeks, rank vs non-treated
Outline: as §2

velvetleaf = experiment: Soil treatment test for upland field; format: in vivo, Abutilon theophrasti; conditions: 500 g/ha, glass house 25° C., 3 weeks
Outline: as §1

sugar beat = experiment: Soil treatment test for upland field; format: in vivo; conditions: 500 g/ha, glass house 25° C., 3 weeks
Outline: as §1

Compound | Effects Livid amaranth (livid amaranth) | Effects Green foxtail (green foxtail) | Effects Annual bluegrass (annual bluegrass) | Effects Large crabgrass (Large crabgrass) | Effect Young rice plant (young rice plant) | Effect Flat sedge (flat sedge) | Effects Blackgrass (blackgrass) | Effects Common lambsquarters (common lambsquartes) | Effects Barnyardgrass (barnyardgrass [1]) | Effect Barnyardgrass (barnyardgrass [2]) | Effects Solgum (solgum) | Effects Cotton (cotton) | Effects Soybean (soybean) | Effects Wheat (wheat) | Effects Corn (corn) | Effect Bulrush (bulrush) | Effect Monochoria (monochoria) | Effects Velvetleaf (velvetleaf) | Effects Sugar beat (sugar beat)
CC(Oc1cccc(C(F)(F)F)c1)c1nc2cc(Cl)ccc2o1 (centres unmarked) [Compound 138] | 5 | 2 | 3 | 4 | 0 | 3 | 5 | 3 | 1 | 2 | 0 | 0 | 0 | 0 | 0 | 2 | 3 | – | –
CCC(Oc1cccc(OC(F)(F)F)c1)c1nc2cc(C#N)ccc2o1 (centres unmarked) [Compound 396] | 5 | 5 | 5 | 5 | 2 | 5 | 5 | 5 | 5 | 2 | 3 | – | 2 | 2 | 2 | 5 | 5 | 5 | 5
CCCC(Oc1ccc(F)c(C(F)(F)F)c1)c1nc2cc(C#N)c(F)cc2o1 (centres unmarked) [Compound 348] | – | – | – | – | 2 | 4 | – | – | – | 4 | – | – | – | – | – | 4 | 5 | – | –
CCC(Oc1ccc(F)c(C(F)(F)F)c1)c1nc2cc(C#N)ccc2o1 (centres unmarked) [Compound 189] | – | – | – | – | 2 | 5 | – | – | – | 5 | – | – | – | – | – | 5 | 5 | – | –
CCC(Oc1ccc(F)c(C(F)(F)F)c1)c1nc2cc(C#N)c(F)cc2o1 (centres unmarked) [Compound 346] | – | – | – | – | 2 | 5 | – | – | – | 5 | – | – | – | – | – | 5 | 5 | – | –
CCCC(Oc1ccc(F)c(C(F)(F)F)c1)c1nc2cc(F)c(F)cc2o1 (centres unmarked) [Compound 286] | – | – | – | – | 3 | 3 | – | – | – | 4 | – | – | – | – | – | 5 | 5 | – | –
CCCC(Oc1cccc(C#N)c1)c1nc2cc(C#N)ccc2o1 (centres unmarked) [Compound 393] | – | – | – | – | 0 | 5 | – | – | – | 4 | – | – | – | – | – | 5 | 5 | – | –
CCC(Oc1cccc(C#N)c1)c1nc2cc(C#N)ccc2o1 (centres unmarked) [Compound 392] | 5 | 5 | 4 | 5 | 0 | 5 | – | 3 | 2 | 5 | 5 | 0 | 0 | 0 | 1 | 5 | 5 | – | 2
